Entries after “also recorded” stand apart in the source; their conditions may differ.
Legend:
Assay type in all cases: cell-based
IGROVI = assay: NCI 60 cell line screen (SRB), Ovarian Cancer
786-0 = assay: NCI 60 cell line screen (SRB), Renal Cancer
NCI/ADR-RES = assay: NCI 60 cell line screen (SRB), Breast Cancer
OVCAR-8 = assay: NCI 60 cell line screen (SRB), Ovarian Cancer
HOP-62 = assay: NCI 60 cell line screen (SRB), Non-Small Cell Lung Cancer
HCC-2998 = assay: NCI 60 cell line screen (SRB), Colon Cancer
ACHN = assay: NCI 60 cell line screen (SRB), Renal Cancer
LOX IMVI = assay: NCI 60 cell line screen (SRB), Melanoma
SNB-19 = assay: NCI 60 cell line screen (SRB), CNS Cancer
NCI-H522 = assay: NCI 60 cell line screen (SRB), Non-Small Cell Lung Cancer
MALME-3M = assay: NCI 60 cell line screen (SRB), Melanoma
SF-295 = assay: NCI 60 cell line screen (SRB), CNS Cancer
60 cell line panel = assay: NCI 60 cell line screen (SRB), whole panel
Description: The screening assay is performed on 96-well microtitre plates. Relatively high initial inoculation densities are used, in order to permit measurement of “time-zero” values and to enhance the screen's ability to detect and provide some differentiation between antiproliferative and cytotoxic response parameters. […] The inoculated microtitre plates are pre-incubated for 24 hours at 37θC prior to drug additions. The five drug dilutions tested routinely range from 10^−4 to 10^−8 molar. Higher or lower concentration ranges may be selected on a nonroutine basis if appropriate solubility and/or prior biological information or other screening data so dictate. Duplicate wells are prepared for all concentrations, (concentration is often denoted by placing brackets around a number); “time-zero” and “no drug” controls are also provided for each test. The minimum amount of compound required for a one-time evaluation in the routine screen can be calculated from the knowledge that each test requires a total of approximately 40 ml (0.04 liter) of cell culture medium containing the highest desired drug concentration. Thus, the amount (grams) of sample required (assuming an upper test concentration limit of 10^−4 M) is: molecular weight of compound×[…]. After a 48 hour incubation (37θC) with the test compound, the cells are fixed in situ to the bottoms of the microtitre wells by addition of 50 ul of either 50% trichloroacetic acid (for adherent cell lines) or 80% trichloroacetic acid (for settled cell suspension lines), followed by incubation for 60 minutes at 4θC. The cellular protein in each well is assayed using a sulforhodamine B (SRB) stain procedure. Briefly, after discarding the supernatants, the microtitre plates are washed 5 times with deionized water and air-dried. One hundred microliters of SRB solution (0.4% w/v in 1% acetic acid) is added to each microtitre well and incubated for 10 minutes at room temperature. Unbound SRB is removed by washing 5 times with 1 % acetic acid. The plates are air-dried, the bound stain is solubilized with Tris buffer, and the optical densities read at 515 nm. SRB is a bright pink anionic dye which, in dilute acetic acid, binds electrostatically to the basic amino acids of TCA-fixed cells. Cryopreserved master stocks of all the lines are maintained, and cultures used for screening are replaced from the master stock after no more than twenty passages in the screening laboratory. The cell line panel consists of 60 lines, organized into nine, disease-related subpanels including leukemia, non-small-cell lung cancer, colon, CNS, melanoma, ovarian, renal, prostate and breast cancers.
The response parameters G150 and LC50 are interpolated values representing the concentrations at which the percentage growth (PG) is +50 and −50, respectively:
GI50 is the concentration for which the PG=+50. At this value the increase from time tzero, in the number or mass of cells in the test well is only 50% as much as the corresponding increase in the control well during this period of the experiment, see Table II. A drug effect of this intensity is interpreted as primary growth inhibition.
TGI is the concentration for which PG=0. At this value the number or mass of cells in the well at the end of the experiment equals the number or mass of cells in the well at time tzero, see Table III. A drug effect of this intensity is regarded as cytostasis.
LC50 is the concentration for which the PG=−50. At this value, the number or mass of cells in the test well at the end of the experiment is half that at time tzero, see Table IV. This is interpreted as cytotoxicity.

RXF 393 = assay: NCI 60 cell line screen (SRB), Renal Cancer
SN12C = assay: NCI 60 cell line screen (SRB), Renal Cancer
SK-MEL-5 = assay: NCI 60 cell line screen (SRB), Melanoma
HCT-15 = assay: NCI 60 cell line screen (SRB), Colon Cancer
HT29 = assay: NCI 60 cell line screen (SRB), Colon Cancer
OVCAR-5 = assay: NCI 60 cell line screen (SRB), Ovarian Cancer
NCI-H322M = assay: NCI 60 cell line screen (SRB), Non-Small Cell Lung Cancer

CC1=C(C=Cc2cccc(C=CC3=C(C)C4CCC(C)C5CCC6(C)OOC45C(O3)O6)c2)OC2OC3(C)CCC4C(C)CCC1C24OO3 (stereo not shown) [VII-g]
Log10TGI (IGROVI; PG=0): −4.21 log10M | Log10GI50 (IGROVI; PG=+50): −5.16 log10M | Log10GI50 (IGROVI; Table IV (LC50, PG=−50)): >−4.00 log10M | Log10TGI (786-0; PG=0): >−4.00 log10M | Log10GI50 (786-0; PG=+50): −6.10 log10M | Log10GI50 (786-0; Table IV (LC50, PG=−50)): >−4.00 log10M | Log10TGI (NCI/ADR-RES; PG=0): >−4.00 log10M | Log10GI50 (NCI/ADR-RES; PG=+50): −5.27 log10M | Log10GI50 (NCI/ADR-RES; Table IV (LC50, PG=−50)): >−4.00 log10M | Log10TGI (OVCAR-8; PG=0): >−4.00 log10M | Log10GI50 (OVCAR-8; PG=+50): −6.70 log10M | Log10GI50 (OVCAR-8; Table IV (LC50, PG=−50)): >−4.00 log10M | Log10TGI (HOP-62; PG=0): >−4.00 log10M | Log10GI50 (HOP-62; PG=+50): −6.45 log10M | Log10GI50 (HOP-62; Table IV (LC50, PG=−50)): >−4.00 log10M | Log10TGI (HCC-2998; PG=0): >−4.00 log10M | Log10GI50 (HCC-2998; PG=+50): −6.12 log10M | Log10TGI (ACHN; PG=0): >−4.00 log10M | Log10 GI50 or LC50 (see conditions) (ACHN; PG=+50): −6.37 log10M | Log10 GI50 or LC50 (see conditions) (ACHN; Table IV (LC50, PG=−50)): >−4.00 log10M | Log10TGI (LOX IMVI; PG=0): −5.06 log10M | Log10GI50 (LOX IMVI; PG=+50): −7.07 log10M | Log10GI50 (LOX IMVI; Table IV (LC50, PG=−50)): >−4.00 log10M | Log10TGI (SNB-19; PG=0): >−4.00 log10M | Log10GI50 or Log10LC50 (see condition) (SNB-19; PG=+50): −6.48 log10M | Log10GI50 or Log10LC50 (see condition) (SNB-19; Table IV (LC50, PG=−50)): >−4.00 log10M | Log10TGI (NCI-H522; PG=0): >−4.00 log10M | Log10GI50 (NCI-H522; PG=+50): −6.99 log10M | Log10GI50 (NCI-H522; Table IV (LC50, PG=−50)): >−4.00 log10M | Log10TGI (MALME-3M; PG=0): −4.24 log10M | Log10GI50 (MALME-3M; PG=+50): −6.60 log10M | Log10GI50 (MALME-3M; Table IV (LC50, PG=−50)): >−4.00 log10M | Log10TGI (SF-295; PG=0): >−4.00 log10M | Log10GI50 (SF-295; PG=+50): −6.48 log10M | MG MID of Log10GI50 (Table IV) (60 cell line panel; Table IV (LC50), mean over the panel): −4.02 log10M | Delta of Log10GI50 (Table IV) (60 cell line panel; Table IV (LC50), panel summary): 0.94 | Range of Log10GI50 (Table IV) (60 cell line panel; Table IV (LC50), panel summary): 0.96 | potency in words, compared with artemisinin and paclitaxel (60 cell line panel; Tables II, III and IV): in most instances are as potent and in some instances more potent than paclitaxel; also recorded: more potent than artemisinin and equivalent to and in many instances higher in potency than paclitaxel | MG MID of Log10GI50 (60 cell line panel; mean over the panel): −6.58 log10M | MG MID of Log10TGI (60 cell line panel; mean over the panel): −4.32 log10M | Delta of Log10GI50 (60 cell line panel; panel summary): 0.93 | Delta of Log10TGI (60 cell line panel; panel summary): 2.51 | Range of Log10GI50 (60 cell line panel; panel summary): 2.60 | Range of Log10TGI (60 cell line panel; panel summary): 2.82 | Log10TGI (RXF 393; PG=0): >−4.00 log10M | Log10GI50 (RXF 393; PG=+50): −5.80 log10M | Log10GI50 (RXF 393; Table IV (LC50, PG=−50)): >−4.00 log10M | Log10TGI (SN12C; SN12C, PG=0): >−4.00 log10M | Log10GI50 (SN12C; SNI2C, PG=+50): −6.69 log10M | Log10GI50 (SN12C; Table IV (LC50, PG=−50), SN12C): >−4.00 log10M | Log10TGI (SK-MEL-5; PG=0): −5.16 log10M | Log10 GI50 or LC50 (SK-MEL-5; PG=+50): −6.71 log10M | Log10 GI50 or LC50 (SK-MEL-5; Table IV (LC50, PG=−50)): >−4.00 log10M | Log10TGI (HCT-15; PG=0): −4.88 log10M | log10 GI50 (PG=+50) or LC50 (PG=−50), per row condition (HCT-15; PG=+50): −7.05 log10M | log10 GI50 (PG=+50) or LC50 (PG=−50), per row condition (HCT-15; Table IV (LC50, PG=−50)): >−4.00 log10M | Log10TGI (HT29; PG=0): >−4.00 log10M | Log10GI50 (HT29; PG=+50): −6.88 log10M | Log10GI50 (HT29; Table IV (LC50, PG=−50)): >−4.00 log10M | Log10TGI (OVCAR-5; PG=0): >−4.00 log10M | Log10GI50 (OVCAR-5; PG=+50): −6.58 log10M | Log10GI50 (OVCAR-5; Table IV (LC50, PG=−50)): >−4.00 log10M | Log10TGI (NCI-H322M; PG=0): −4.87 log10M | Log10GI50 (NCI-H322M; PG=+50): −7.42 log10M

Reference: patent US20020055528A1, “Artemisinin analogs having antimalarial, antiproliferative, and antitumor activities and chemoselective methods of making the same” (priority 1999, published 2002)
